Molecules are shown by their SMILES. Where two headings read alike, the source gives them in different places.

Data on 34 compounds can be found in patent US11912682B2, “Isoindolinone compounds” (Monte Rosa Therapeutics, Inc., priority 2021, dated 2024).

The test has as its target GSPT1 (Homo sapiens (Human), UniProt P15170+Q96SW2). In words: immunofluorescence assay for GSPT1 degradation in CAL-51 cells (Example 4). The class given is cell-based. The method, then:
The representative compounds were tested in an immunofluorescence assay for their activity to bind to degrade GSPT1. CAL-51 cells were purchased from DSMZ (cat. Number ACC302), sub-cultured in 90% Dulbecco's MEM (4.5 g/L glucose, Gibco 11965) +10% heat inactivated FBS (BioConcept, 2-01F136I) and incubated at 37° C., 5% CO2. For the assay, imaging microtiterplate Cell Carrier 96 Ultra (Perkin Elmer 6055302) were pre-coated with Fibronectin (Sigma F085, 30 μl at 0.2 μg/ml) in PBS (100 μl, Gibco 14190) for 45 min at room temperature, rinsed with PBS and CAL-51 cells (30 K cells/well) were plated and let to adhere overnight. Cells were treated with compounds typically using a serial dilution ranging from 30 μM to 0.1 nM for 6 hours. Compounds were stored at 10 mM DMSO stocks. Vehicle (DMSO), positive (CC-885, 10 μM) and rescue controls (positive control plus 0.2 μM bortezomib) were also included atthis stage. Cells were subsequently rinsed with PBS and fixed in 10% Formalin solution (50 μl, Sigma HT5011)) for 20 mins at room temperature. Following three consecutive PBS washes (100 μl), cells were permeabilized in 0.1% Triton X-100 in PBS (Sigma 93443, 50 μl) for 15 mins at room temperature. Following three further PBS washes, 50 μl blocking buffer (1% BSA, Sigma A4503, in PBS) was added for 45 min for signal-to-noise reduction.
Primary antibody (human GSPT1, Sigma HPA052488) was diluted in blocking buffer (dil.1/300, 35 μl/well) and incubated with the cells overnight at 4° C. After three PBS washes, Alexa-fluor 488 coupled secondary antibodies (Invitrogen, A32731, dil.1/1000), Alexa-fluor 647-Phalloidin (Invitrogen, A22287, dil.1/200) and DAPI (Thermo, #62248, dil.1/1000) were diluted in blocking buffer and incubated with the samples for 2 hours at room temperature. After three final PBS washes, samples were conserved in 100 μl PBS in the dark, until measurement. Image acquisition was performed on the Operetta High-Content Imager (Perkin-Elmer). Fluorescence intensity of Alexa-Fluor 488 (GSPT1), Alexa-Fluor 647 (Actin) and DAPI (Nucleus) were measured. For the determination of GSPT1 DC50 values, a custom algorithm implemented in the PerkinElmer image analysis software Harmony-Acapella® was developed. After user-defined setting of adjustment parameters, the analysis was run identically without human intervention for all image fields. DAPI staining of the nuclei was used to determine the location of cells using standard nuclei detection modules. Segmentation artifacts were removed by threshold-based filters for area, roundness and intensity. The outline of the cells was determined analogously from the sum of the normalized, smoothed DAPI and Actin channel, starting from each nucleus. The Alexa-Fluor 488 (GSPT1) signal intensity in each cell was finally measured, in order to obtain a Mean intensity per cell. GSPT1 degradation (DC50) was calculated after normalization to controls and data import in CDD vault Database, using non-linear regression.

The mark [1] stands for this setting: 6 hours, read-out: Activity for GSPT1 degradation, Code (DC50).
Setting [2] is: GSPT1 degradation, read-out: DC50 value.

GSPT1, sequence (P15170 whole entry): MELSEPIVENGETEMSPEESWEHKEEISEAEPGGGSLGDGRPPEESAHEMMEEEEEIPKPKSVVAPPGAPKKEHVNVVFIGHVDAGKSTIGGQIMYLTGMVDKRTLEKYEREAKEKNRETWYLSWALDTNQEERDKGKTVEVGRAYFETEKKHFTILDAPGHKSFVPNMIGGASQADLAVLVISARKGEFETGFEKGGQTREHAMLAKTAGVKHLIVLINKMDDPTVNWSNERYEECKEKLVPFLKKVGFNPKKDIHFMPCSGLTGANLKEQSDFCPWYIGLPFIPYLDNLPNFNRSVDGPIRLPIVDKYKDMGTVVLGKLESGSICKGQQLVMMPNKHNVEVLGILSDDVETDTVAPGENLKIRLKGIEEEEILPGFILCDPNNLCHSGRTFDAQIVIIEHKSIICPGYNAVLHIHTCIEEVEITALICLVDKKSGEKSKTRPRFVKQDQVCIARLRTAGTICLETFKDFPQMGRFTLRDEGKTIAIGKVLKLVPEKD
GSPT1, sequence (Q96SW2 whole entry): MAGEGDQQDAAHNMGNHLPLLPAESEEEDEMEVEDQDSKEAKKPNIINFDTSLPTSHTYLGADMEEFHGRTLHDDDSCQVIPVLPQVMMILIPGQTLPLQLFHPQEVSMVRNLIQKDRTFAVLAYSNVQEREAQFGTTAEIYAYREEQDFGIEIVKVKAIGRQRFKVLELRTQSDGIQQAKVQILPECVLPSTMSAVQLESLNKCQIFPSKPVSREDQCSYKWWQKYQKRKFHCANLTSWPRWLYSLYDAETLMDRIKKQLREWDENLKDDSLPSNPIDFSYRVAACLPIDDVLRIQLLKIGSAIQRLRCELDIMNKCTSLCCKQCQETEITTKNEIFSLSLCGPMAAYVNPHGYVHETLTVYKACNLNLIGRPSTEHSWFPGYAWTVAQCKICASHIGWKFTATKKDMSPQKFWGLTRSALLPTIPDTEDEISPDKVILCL
GSPT1, sequence (Q16531 2-1140 partner): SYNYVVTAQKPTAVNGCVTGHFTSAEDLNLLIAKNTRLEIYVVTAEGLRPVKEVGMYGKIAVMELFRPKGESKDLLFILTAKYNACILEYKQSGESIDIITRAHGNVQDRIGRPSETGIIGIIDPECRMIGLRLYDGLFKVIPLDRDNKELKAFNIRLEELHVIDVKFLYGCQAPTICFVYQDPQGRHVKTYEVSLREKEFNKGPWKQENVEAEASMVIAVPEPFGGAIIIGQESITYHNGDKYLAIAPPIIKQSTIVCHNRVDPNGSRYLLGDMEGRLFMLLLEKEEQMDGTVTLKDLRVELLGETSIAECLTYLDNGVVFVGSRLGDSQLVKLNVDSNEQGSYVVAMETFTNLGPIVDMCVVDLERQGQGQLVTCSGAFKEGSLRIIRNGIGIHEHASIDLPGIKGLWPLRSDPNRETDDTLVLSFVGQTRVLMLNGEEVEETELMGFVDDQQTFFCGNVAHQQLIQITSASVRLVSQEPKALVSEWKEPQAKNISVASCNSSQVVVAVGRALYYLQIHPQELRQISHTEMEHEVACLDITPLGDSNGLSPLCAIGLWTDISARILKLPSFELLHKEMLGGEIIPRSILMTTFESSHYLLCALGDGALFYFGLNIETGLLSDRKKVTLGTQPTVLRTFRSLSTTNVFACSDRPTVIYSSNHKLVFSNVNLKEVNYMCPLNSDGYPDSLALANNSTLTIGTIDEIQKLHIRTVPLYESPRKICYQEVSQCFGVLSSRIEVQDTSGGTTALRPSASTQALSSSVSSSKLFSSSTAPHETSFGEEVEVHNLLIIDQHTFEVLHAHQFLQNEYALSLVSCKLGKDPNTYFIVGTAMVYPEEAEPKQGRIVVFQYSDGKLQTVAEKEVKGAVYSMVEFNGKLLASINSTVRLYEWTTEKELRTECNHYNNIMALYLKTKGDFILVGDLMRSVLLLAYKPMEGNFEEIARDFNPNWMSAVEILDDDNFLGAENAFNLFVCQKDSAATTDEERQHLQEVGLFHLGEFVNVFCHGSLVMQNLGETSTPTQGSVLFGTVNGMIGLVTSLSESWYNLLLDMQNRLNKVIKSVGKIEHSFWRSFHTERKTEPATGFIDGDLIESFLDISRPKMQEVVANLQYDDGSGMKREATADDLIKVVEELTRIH

For the compound `O=C1CCC(N2Cc3ccc(COC(=O)Nc4cccc(OC(F)F)c4)cc3C2=O)C(=O)N1` (stereo not drawn) [Compound 5], the DC50 runs as follows: under setting [1], less than 30 nM; under setting [2], not above 30 nM. For `O=C1CCC(N2Cc3ccc(COC(=O)Nc4ccc(F)c(Cl)c4)cc3C2=O)C(=O)N1` (stereo not drawn) [Compound 9], the DC50 under setting [1] lay within 30 to 300 nM.

In the case of `O=C1CCC(N2Cc3ccc(COC(=O)Nc4cc(F)cc(Cl)c4)cc3C2=O)C(=O)N1` (stereo not drawn) [Compound 12], the half-maximal degradation concentration (DC50) under setting [1] is 30 to 300 nM. Take `COc1ccc(Cl)cc1NC(=O)OCc1ccc2c(c1)C(=O)N(C1CCC(=O)NC1=O)C2` (stereo not drawn) [Compound 14]: the DC50 under setting [1] is more than 300 nM. In the case of `O=C1CCC(N2Cc3ccc(COC(=O)Nc4cc(Cl)cc(OC5CCNC5)c4)cc3C2=O)C(=O)N1` (stereo not drawn) [Compound 20], the half-maximal degradation concentration (DC50) under setting [1] was more than 300 nM. In the case of `O=C1CCC(N2Cc3ccc(COC(=O)NC4CCCCC4)cc3C2=O)C(=O)N1` (stereo not drawn) [Compound 28], the DC50 under setting [1] is more than 300 nM. With `CCOc1cc(NC(=O)OCc2ccc3c(c2)C(=O)N(C2CCC(=O)NC2=O)C3)ccc1C` (stereo not drawn) [Compound 33], the DC50 under setting [1] lay in the range of 30 to 300 nM.

For `O=C1CCC(N2Cc3ccc(COC(=O)Nc4ccc5c(c4)CCC5)cc3C2=O)C(=O)N1` (stereo not drawn) [Compound 56], under setting [1], the half-maximal degradation concentration (DC50) was 30 to 300 nM. On to `CCc1cc(NC(=O)OCc2ccc3c(c2)C(=O)N(C2CCC(=O)NC2=O)C3)cc(C)n1` (stereo not drawn) [Compound 71], for which the DC50 under setting [1] fell in the range of 30 to 300 nM. For `O=C1CCC(N2Cc3ccc(COC(=O)Nc4ccc5c(c4)OC(F)(F)O5)cc3C2=O)C(=O)N1` (stereo not drawn) [Compound 79], the DC50 was less than 30 nM under setting [1] and not above 30 nM under setting [2]. In the same order, the values of `COc1cc(NC(=O)OCc2ccc3c(c2)C(=O)N(C2CCC(=O)NC2=O)C3)cnc1-c1ccccc1` (stereo not drawn) [Compound 90] are less than 30 nM and not above 30 nM. In the same order, the values of `O=C1CCC(N2Cc3ccc(COC(=O)Nc4cc(CN5CCOCC5)cc(OC(F)F)c4)cc3C2=O)C(=O)N1` (stereo not drawn) [Compound 95] are less than 30 nM and not above 30 nM. For the compound `O=C1CCC(N2Cc3ccc(COC(=O)Nc4cc(OCCN5CCOCC5)cc(OC(F)F)c4)cc3C2=O)C(=O)N1` (stereo not drawn) [Compound 96], the half-maximal degradation concentration (DC50) is less than 30 nM under setting [1] and not above 30 nM under setting [2]. Regarding `O=C1CCC(N2Cc3ccc(COC(=O)Nc4ccc(C5(F)CC5)nc4)cc3C2=O)C(=O)N1` (stereo not drawn) [Compound 109, (2-(2,6-dioxopiperidin-3-yl)-3-oxoisoindolin-5-yl)methyl (6-(1-fluorocyclopropyl)pyridin-3-yl)carbamate], the DC50 reads like this: under setting [1], less than 30 nM; under setting [2], not above 30 nM. In the case of `Cc1cc(NC(=O)OCc2ccc3c(c2)C(=O)N(C2CCC(=O)NC2=O)C3)cc(F)c1C` (stereo not drawn) [Compound 117], the DC50 under setting [1] lay in the range of 30 to 300 nM. With `Cc1cc(NC(=O)OCc2ccc3c(c2)C(=O)N(C2CCC(=O)NC2=O)C3)cc(C(C)(C)C)n1` (stereo not drawn) [Compound 118], the half-maximal degradation concentration (DC50) was less than 30 nM under setting [1] and not above 30 nM under setting [2]. Take `Cc1cc(Cl)c(NC(=O)OCc2ccc3c(c2)C(=O)N(C2CCC(=O)NC2=O)C3)cc1Cl` (stereo not drawn) [Compound 119]: the DC50 under setting [1] is more than 300 nM.

As to `CC(C)(C)C12CC(NC(=O)OCc3ccc4c(c3)C(=O)N(C3CCC(=O)NC3=O)C4)(C1)C2` (stereo not drawn) [Compound 120, (2-(2,6-dioxopiperidin-3-yl)-3-oxoisoindolin-5-yl)methyl (3-(tert-butyl)bicyclo[1.1.1]pentan-1-yl)carbamate], under setting [1], the DC50 lay in the range of 30 to 300 nM. Regarding `Cc1cc(C)c(NC(=O)OCc2ccc3c(c2)C(=O)N(C2CCC(=O)NC2=O)C3)cc1Cl` (stereo not drawn) [Compound 123, (2-(2,6-dioxopiperidin-3-yl)-3-oxoisoindolin-5-yl) methyl (5-chloro-2,4-dimethylphenyl)carbamate], the DC50 under setting [1] was more than 300 nM. `Cc1c(F)cc(NC(=O)OCc2ccc3c(c2)C(=O)N(C2CCC(=O)NC2=O)C3)cc1F` (stereo not drawn) [Compound 127, (2-(2,6-dioxopiperidin-3-yl)-3-oxoisoindolin-5-yl)methyl (3,5-difluoro-4-methylphenyl)carbamate]: under setting [1], the DC50 lay within 30 to 300 nM. `Cc1ccc(OC(F)(F)F)cc1NC(=O)OCc1ccc2c(c1)C(=O)N(C1CCC(=O)NC1=O)C2` (stereo not drawn) [Compound 128]: the 50% degradation concentration (DC50) under setting [1] was more than 300 nM.

For the compound `O=C1CCC(N2Cc3ccc(COC(=O)NC4COC(c5ccccc5)OC4)cc3C2=O)C(=O)N1` (stereo not drawn) [Compound 130], the DC50 under setting [1] was more than 300 nM.

Turning to `CC(C)(C)c1ccc(NC(=O)OCc2ccc3c(c2)C(=O)N(C2CCC(=O)NC2=O)C3)nc1` (stereo not drawn) [Compound 131, (2-(2,6-dioxopiperidin-3-yl)-3-oxoisoindolin-5-yl)methyl (5-(tert-butyl)pyridin-2-yl)carbamate], under setting [1], the 50% degradation concentration (DC50) lay in the range of 30 to 300 nM. Take `O=C1CCC(N2Cc3ccc(COC(=O)Nc4cc(F)c(F)c(Cl)c4)cc3C2=O)C(=O)N1` (stereo not drawn) [Compound 132]: the half-maximal degradation concentration (DC50) under setting [1] is 30 to 300 nM. For `Cc1ccc(NC(=O)OCc2ccc3c(c2)C(=O)N(C2CCC(=O)NC2=O)C3)cc1F` (stereo not drawn) [Compound 133, (2-(2,6-dioxopiperidin-3-yl)-3-oxoisoindolin-5-yl)methyl (3-fluoro-4-methylphenyl)carbamate], under setting [1], the DC50 lay within 30 to 300 nM. The same measure, in the same setting: under `O=C1CCC(N2Cc3ccc(COC(=O)Nc4ccccc4)cc3C2=O)C(=O)N1` (stereo not drawn) [Compound 138, (2-(2,6-dioxopiperidin-3-yl)-3-oxoisoindolin-5-yl)methyl phenylcarbamate] stands more than 300 nM.

In the case of `O=C1CCC(N2Cc3ccc(COC(=O)Nc4cc(C(F)(F)F)ns4)cc3C2=O)C(=O)N1` (stereo not drawn) [Compound 139], the DC50 under setting [1] lay in the range of 30 to 300 nM. In the case of `Cc1cc(F)c(NC(=O)OCc2ccc3c(c2)C(=O)N(C2CCC(=O)NC2=O)C3)cc1Cl` (stereo not drawn) [Compound 141, (2-(2,6-dioxopiperidin-3-yl)-3-oxoisoindolin-5-yl)methyl (5-chloro-2-fluoro-4-methylphenyl)carbamate], the DC50 under setting [1] fell in the range of 30 to 300 nM. As for `CC(C)(C)c1ccc(NC(=O)OCc2ccc3c(c2)C(=O)N(C2CCC(=O)NC2=O)C3)c(F)c1` (stereo not drawn) [Compound 142, (2-(2,6-dioxopiperidin-3-yl)-3-oxoisoindolin-5-yl)methyl (4-(tert-butyl)-2-fluorophenyl)carbamate], the DC50 under setting [1] was 30 to 300 nM.

On to `Cc1cc(Cl)cc(NC(=O)OCc2ccc3c(c2)C(=O)N(C2CCC(=O)NC2=O)C3)c1` (stereo not drawn) [Compound 144, (2-(2,6-dioxopiperidin-3-yl)-3-oxoisoindolin-5-yl)methyl (3-chloro-5-methylphenyl)carbamate], for which the DC50 under setting [1] is 30 to 300 nM. As to `O=C1CCC(N2Cc3ccc(COC(=O)Nc4cc(OC(F)(F)F)ccc4F)cc3C2=O)C(=O)N1` (stereo not drawn) [Compound 145, (2-(2,6-dioxopiperidin-3-yl)-3-oxoisoindolin-5-yl)methyl(2-fluoro-5-(trifluoromethoxy)phenyl)carbamate], the DC50 under setting [1] fell in the range of 30 to 300 nM. `Cc1cc(F)cc(NC(=O)OCc2ccc3c(c2)C(=O)N(C2CCC(=O)NC2=O)C3)c1` (stereo not drawn) [Compound 146, (2-(2,6-dioxopiperidin-3-yl)-3-oxoisoindolin-5-yl)methyl (3-fluoro-5-methylphenyl) carbamate]: under setting [1], the half-maximal degradation concentration (DC50) was 30 to 300 nM. `CCc1nscc1NC(=O)OCc1ccc2c(c1)C(=O)N(C1CCC(=O)NC1=O)C2` (stereo not drawn) [Compound 147]: the DC50 under setting [1] is more than 300 nM. In the case of `CC(C)(C)c1cccc(NC(=O)OCc2ccc3c(c2)C(=O)N(C2CCC(=O)NC2=O)C3)c1` (stereo not drawn) [Compound 153, (2-(2,6-dioxopiperidin-3-yl)-3-oxoisoindolin-5-yl)methyl (3-(tert-butyl)phenyl)carbamate], the DC50 was less than 30 nM under setting [1] and not above 30 nM under setting [2].
